Data taken from PMC8318836 (Bioorganic Chemistry, 2021).

Experiments:
[1] = test system: SARS-CoV-2 pseudovirus; type: cell-based; conditions: for EC50: read-out: EC50-SARS-CoV-2
[2] = test system: VSV G pseudovirus; type: cell-based, vesicular stomatitis virus (VSV); conditions: read-out: EC50-VSV
[3] = test system: Huh 7 cells; conditions: concentration of 50% cellular toxicity in Huh 7 cells
[4] = test system: SARS-CoV-2 pseudovirus; experiment: Single-cycle time-of-addition experiment on SARS-CoV-2 pseudovirus; type: cell-based; conditions: 25 µM, Huh 7 cells

Structure (SMILES) | EC50 [1] [µM] | EC50 [2] [µM] | CC50 [3] [µM] | inhibition rate, process d ([4]; added 1 h post infection) [%] | inhibition rate, process b ([4]; added during pseudovirus infection at 0 °C) [%] | inhibition rate, process a ([4]; added during pseudovirus infection at 37 °C) [%] | anti-SARS-CoV-2 activity compared to lead 1 [1]
O=C(CNc1cc(C(F)(F)F)cc(C(F)(F)F)c1)N1CCCC2=CC3CC(CN4CCCCC34)C21 (stereo not shown) [14o, 12N-N′-(3,5-Ditrifluoromethylphenylamino)acetyl aloperine] | 37.6 | 48.3 | 113 |  |  |  | 
O=C(CNc1ccc(Cl)c(Cl)c1)N1CCCC2=CC3CC(C4CCCCN4C3)C21 (stereo not shown) [14l, 12N-N′-(3,4-Dichlorophenylamino)acetyl aloperine] | 15.8 | 35.9 | 63 |  |  |  | 
O=C(CNc1ccc(F)cc1)N1CCCC2=CC3CC(CN4CCCCC34)C21 (stereo not shown) [14b, 12N-N′-p-Fluorophenylaminoacetyl aloperine] | 177 | > 267 | > 267 |  |  |  | 
O=C(CNc1cccc(C(F)(F)F)c1)N1CCCC2=CC3CC(CN4CCCCC34)C21 (stereo not shown) [14h, 12N-N′-m-Trifluoromethylphenylaminoacetyl aloperine] | 69.2 | 134 | > 267 |  |  |  | 
CCCNC(=O)[C@H]1O[C@@H]1C(=O)N[C@H](C(=O)N1CCC[C@H]1C(=O)O)[C@@H](C)CC [CA-074, reference compound] | 2.7 | 10.5 | 231 | 93 | 77 | 87 | 
O=C(CNc1ccccc1)N1CCCC2=CC3CC(CN4CCCCC34)C21 (stereo not shown) [14a, 12N-N′-Phenylaminoacetyl aloperine] | > 267 | > 267 | > 267 |  |  |  | 
O=C(CN1CCCC2=CC3CC(CN4CCCCC34)C21)Nc1cc(C(F)(F)F)cc(C(F)(F)F)c1 (stereo not shown) [11o, 12N-N′-(3,5-Ditrifluoromethylphenyl)carbamoylmethyl aloperine] | 17 | 21.9 | 71 |  |  |  | 
O=C(CNc1ccc2ccccc2c1)N1CCCC2=CC3CC(CN4CCCCC34)C21 (stereo not shown) [14q, 12N-N′-(2-Naphthylamino)acetyl aloperine] | 87.2 | 108 | 224 |  |  |  | 
O=C(CNc1ccc(Br)cc1)N1CCCC2=CC3CC(CN4CCCCC34)C21 (stereo not shown) [14e, 12N-N′-p-Bromophenylaminoacetyl aloperine] | 37.3 | 85.4 | 180 |  |  |  | 
O=C(CN1CCCC2=CC3CC(C4CCCCN4C3)C21)Nc1ccc(Cl)cc1Cl (stereo not shown) [11d, 12N-N′-(2,4-Dichlorophenyl)carbamoylmethyl aloperine] | 54.8 | 70.5 | 167 |  |  |  | 
O=C(CN1CCCC2=CC3CC(C4CCCCN4C3)C21)Nc1ccc2ccccc2c1 (stereo not shown) [11p, 12N-N′-(2-Naphthyl)carbamoylmethyl aloperine] | 37.1 | 43.5 | 96.7 |  |  |  | 
COc1cccc(NCC(=O)N2CCCC3=CC4CC(C5CCCCN5C4)C32)c1 (stereo not shown) [14i, 12N-N′-m-Methoxyphenylaminoacetyl aloperine] | > 267 | > 267 | > 267 |  |  |  | 
Cc1cc(C)cc(NCC(=O)N2CCCC3=CC4CC(CN5CCCCC45)C32)c1 (stereo not shown) [14m, 12N-N′-(3,5-Dimethylphenylamino)acetyl aloperine] | > 267 | > 267 | > 267 |  |  |  | 
O=C(CNc1cccc2ccccc12)N1CCCC2=CC3CC(C4CCCCN4C3)C21 (stereo not shown) [14p, 12 N-N′-(1-Naphthylamino)acetyl aloperine] | 73.6 | 125 | 199 |  |  |  | 
O=C(Nc1cc(C(F)(F)F)cc(C(F)(F)F)c1)N1CCCC2=CC3CC(CN4CCCCC34)C21 (stereo not shown) [15c, 12N-N′-(3,5-Ditrifluoromethylphenyl)carbamoyl aloperine] | 11.5 | 14.9 | 53.9 |  |  |  | 
Cc1cc(Cl)ccc1NC(=O)CN1CCCC2=CC3CC(C4CCCCN4C3)C21 (stereo not shown) [11j, 12N-N′-(4-Chloro-2-methylphenyl)carbamoylmethyl aloperine] | 107 | 75.1 | > 267 |  |  |  | 
O=C(CNc1ccc(Cl)cc1Cl)N1CCCC2=CC3CC(CN4CCCCC34)C21 (stereo not shown) [14k, 12N-N′-(2,4-Dichlorophenylamino)acetyl aloperine] | 17.8 | 36.2 | 65.8 |  |  |  | 
O=C(CN1CCCC2=CC3CC(CN4CCCCC34)C21)Nc1ccc2ccccc2n1 (stereo not shown) [11q, 12N-N′-(2-Quinolyl)carbamoylmethyl aloperine] | 67.4 | 120 | > 267 |  |  |  | 
O=C(CNc1ccc(Cl)cc1)N1CCCC2=CC3CC(CN4CCCCC34)C21 (stereo not shown) [14d, 12N-N′-p-Chlorophenylaminoacetyl aloperine] | 61.3 | 163 | > 267 |  |  |  | 
O=C(CN1CCCC2=CC3CC(C4CCCCN4C3)C21)Nc1cc(Br)ccc1Cl (stereo not shown) [11g, 12N-N′-(5-Bromo-2-chlorophenyl)carbamoylmethyl aloperine] | 90.3 | 77.5 | > 267 |  |  |  | 
Cc1ccc(NC(=O)CN2CCCC3=CC4CC(CN5CCCCC45)C32)cc1C (stereo not shown) [11n, 12N-N′-(3,4-Dimethylphenyl)carbamoylmethyl aloperine] | 70.8 | 108 | > 267 |  |  |  | 
O=C(CN1CCCC2=CC3CC(C4CCCCN4C3)C21)Nc1cc(Cl)cc(C(F)(F)F)c1 (stereo not shown) [11k, 12N-N′-(3-Chloro-5-trifluoromethylphenyl)carbamoylmethyl aloperine] | 10.4 | 17.5 | 57.1 |  |  |  | slightly elevated activity
COc1cc(NCC(=O)N2CCCC3=CC4CC(CN5CCCCC45)C32)cc(OC)c1 (stereo not shown) [14n, 12N-N′-(3,5-Dimethoxyphenylamino)acetyl aloperine] | > 267 | > 267 | > 267 |  |  |  | 
O=C(Nc1ccc(F)cc1F)N1CCCC2=CC3CC(CN4CCCCC34)C21 (stereo not shown) [15a, 12N-N′-(2,4-Difluorophenyl)carbamoyl aloperine] | 195 | 139 | > 267 |  |  |  | 
O=C(CN1CCCC2=CC3CC(CN4CCCCC34)C21)Nc1ccc(I)cc1 (stereo not shown) [11c, 12N-N′-p-Iodophenylcarbamoylmethyl aloperine] | 29.5 | 47.8 | 124 |  |  |  | 
